# Reference: US4332820A, “Substituted benzonitriles having antiviral activity” (The Dow Chemical Company, priority 1980, dated 1982)
# Key:
# [1] = Cytotoxicity in tissue culture (HeLa monolayers); format: cell-based; settings: human; HeLa cells; observed at 48 and 72 hours post-treatment; read-out: Cytotoxicity (concentration of the compound found to be toxic to the cell)
# [2] = system: rhinovirus type 1A (RV-1A); test: Tissue culture antiviral testing, RV-1A (cytopathic effect, HeLa cells); format: cell-based; settings: Enterovirus, HeLa cells, NA = not active at the standard test conditions, read-out: Lowest concentration of the compound necessary to cause a 50 percent reduction in cytopathic effect
# rhinovirus type 2 (RV-2) = test: Tissue culture antiviral testing, RV-2 (cytopathic effect, HeLa cells); format: cell-based; settings: Enterovirus, HeLa cells, NA = not active at the standard test conditions, read-out: Lowest concentration of the compound necessary to cause a 50 percent reduction in cytopathic effect
# [3] = system: Coxsackie A21 virus (Cox A21); test: Tissue culture antiviral testing, Cox A21 (cytopathic effect, HeLa cells); format: cell-based; settings: HeLa cells, NA = not active at the standard test conditions, read-out: Lowest concentration of the compound necessary to cause a 50 percent reduction in cytopathic effect
# rhinovirus type 5 (RV-5) = test: Tissue culture antiviral testing, RV-5 (cytopathic effect, HeLa cells); format: cell-based; settings: Enterovirus, HeLa cells, read-out: Lowest concentration of the compound necessary to cause a 50 percent reduction in cytopathic effect
# rhinovirus type 8 (RV-8) = test: Tissue culture antiviral testing, RV-8 (cytopathic effect, HeLa cells); format: cell-based; settings: Enterovirus, HeLa cells, read-out: Lowest concentration of the compound necessary to cause a 50 percent reduction in cytopathic effect
# [4] = system: rhinovirus type 64 (RV-64); test: Tissue culture antiviral testing, RV-64 (cytopathic effect, HeLa cells); format: cell-based; settings: Enterovirus, HeLa cells, NA = not active at the standard test conditions, read-out: Lowest concentration of the compound necessary to cause a 50 percent reduction in cytopathic effect
# Cox A21 = test: Single Oral Dose test in mice challenged with Cox A21; format: in vivo, Swiss male mice; settings: po, 600 mg/kg, 3 h
# Coxsackie A21 virus = test: Continuous Oral Feeding test in mice challenged with Coxsackie A21; format: in vivo; settings: po, 0.06 % in diet, 240 h, 0.06 % strength
Structure (SMILES),EC50 [2] [µg/mL],EC50 (rhinovirus type 2 (RV-2)) [µg/mL],EC50 [3] [µg/mL],EC50 (rhinovirus type 5 (RV-5)) [µg/mL],EC50 (rhinovirus type 8 (RV-8)) [µg/mL],EC50 [4] [µg/mL],MCC [1] [µg/mL],"X^2 (Single Oral Dose, chi-square of deaths vs virus control) (Cox A21)","X^2 (Continuous Oral Feeding, chi-square of deaths) (Coxsackie A21 virus)"
"N#Cc1cc([N+](=O)[O-])ccc1Oc1c(F)c(F)cc(F)c1F [Example 18, 2-(2,3,5,6-Tetrafluorophenoxy)-5-nitrobenzonitrile]",3.12,< 3.12,3.12,1.25,1.25,0.312,12.5,,
"N#Cc1cc([N+](=O)[O-])ccc1Oc1ccc(Oc2ccccc2)cc1 [Example 5, 2-(4-Phenoxyphenoxy)-5-nitrobenzonitrile]",,50,< 6.25,,,,> 100,0.719,0.26
"CC(=O)c1ccc(Oc2ccc([N+](=O)[O-])cc2C#N)cc1 [Example 15, 2-(4-Acetylphenoxy)-5-nitrobenzonitrile]",6.25,3.12,< 3.12,6.25,3.12,6.25,> 50,,
"C[S+]([O-])c1ccc(Oc2ccc([N+](=O)[O-])cc2C#N)cc1 (stereo not shown) [Example 7, 2-(4-(Methylsulfinyl)phenoxy)-5-nitrobenzonitrile]",,6.25,< 6.25,,,,50,18.94,18.82
"N#Cc1cc([N+](=O)[O-])ccc1Oc1cc(Cl)cc(Cl)c1 [Example 25, 2-(3,5-Dichlorophenoxy)-5-nitrobenzonitrile]",6.25,3.12,,6.25,3.12,25,> 50,,
"N#Cc1cc([N+](=O)[O-])ccc1Oc1cccc(C(F)(F)F)c1 [Example 27, 2-((3-Trifluoromethyl)phenoxy)-5-nitrobenzonitrile]",2.5,0.625,1.25,0.625,1.25,0.625,12.5,,
"N#Cc1cc([N+](=O)[O-])ccc1Oc1cccc(Cl)c1Cl [Example 22, 2-(2,3-Dichlorophenoxy)-5-nitrobenzonitrile]",< 3.12,< 3.12,< 3.12,,,< 3.12,> 50,,
"N#Cc1cc([N+](=O)[O-])ccc1Oc1ccc(C(F)(F)F)cc1 [Example 14, 2-((4-Trifluoromethyl)phenoxy)-5-nitrobenzonitrile]",3.12,0.312,0.625,2.5,0.312,0.625,≥ 50,,

# Now from value to compound, other results behind:
EC50 [2] [µg/mL],EC50 (rhinovirus type 2 (RV-2)) [µg/mL],EC50 [3] [µg/mL],EC50 (rhinovirus type 5 (RV-5)) [µg/mL],EC50 (rhinovirus type 8 (RV-8)) [µg/mL],EC50 [4] [µg/mL],Structure (SMILES),MCC [1] [µg/mL],"X^2 (Single Oral Dose, chi-square of deaths vs virus control) (Cox A21)","X^2 (Continuous Oral Feeding, chi-square of deaths) (Coxsackie A21 virus)"
,~100,12.5,,,,"N#Cc1cc([N+](=O)[O-])ccc1Oc1ccc(C(=O)c2ccccc2)cc1 [Example 11, 2-(4-Benzoylphenoxy)-5-nitrobenzonitrile]",> 100,0.64,
2.5,1.25,1.25,,,,"N#Cc1cc([N+](=O)[O-])ccc1Oc1cc(Cl)c(Cl)c(Cl)c1 [Example 17, 2-(3,4,5-Trichlorophenoxy)-5-nitrobenzonitrile]",10,,
,2.5,~2.5,,,,"N#Cc1cc([N+](=O)[O-])ccc1Sc1ccc(Cl)c(Cl)c1 [Example 20, 2-((3,4-Dichlorophenyl)thio)-5-nitrobenzonitrile]",10,,
,,< 6.25,,,,"CN(C)S(=O)(=O)c1ccc(Oc2ccc([N+](=O)[O-])cc2C#N)cc1 [Example 9, N,N-Dimethyl-4-(2-cyano-4-nitrophenoxy)benzenesulfonamide]",> 100,,9.03
3.12,< 3.12,6.25,≤ 6.25,< 6.25,3.12,"N#Cc1cc([N+](=O)[O-])ccc1Oc1cc(Cl)ccc1Cl [Example 23, 2-(2,5-Dichlorophenoxy)-5-nitrobenzonitrile]",> 50,,
1.25,1.25,2.5,,,,"N#Cc1cc([N+](=O)[O-])ccc1Oc1ccc(Br)cc1 [Example 3, 2-(4-Bromophenoxy)-5-nitrobenzonitrile]",> 100,2.139,5.81
